Laboratory results taken from patent US10597388B2, “Pyridazinone herbicides” (FMC CORPORATION, priority 2014, dated 2020).

What was measured:
Assay in all cases: Test D controlled growth environment herbicide test, pre- and postemergence
Type in all cases: in vivo
[1] = tested on: speedwell (bird's-eye speedwell, Veronica persica)
In short: (§1)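 Species sown in silt loam and sprayed preemergence, or grown in peat-based medium to 2–18 cm (1- to 4-leaf stage) and sprayed postemergence, with compounds in non-phytotoxic solvent plus surfactant. Visual injury scored versus controls after 14–21 d in a controlled environment, 0 (no effect) to 100 (complete control).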

[2] = tested on: mustard, wild (wild mustard, Sinapis arvensis)
In short: as §1

kochia (Kochia scoparia) = tested on: kochia (Kochia scoparia)
In short: as §1

[3] = tested on: bluegrass (annual bluegrass, Poa annua)
In short: as §1

[4] = tested on: canarygrass (Phalaris minor)
In short: as §1

[5] = tested on: Russian thistle (Salsola kali)
In short: as §1

[6] = tested on: field violet (Viola arvensis)
In short: as §1

[7] = tested on: buckwheat, wild (wild buckwheat, Polygonum convolvulus)
In short: as §1

[8] = tested on: radish, wild (wild radish, Raphanus raphanistrum)
In short: as §1

[9] = tested on: galium (catchweed bedstraw, Galium aparine)
In short: as §1

[10] = tested on: windgrass (Apera spica-venti)
In short: as §1

[11] = tested on: oilseed rape (Brassica napus)
In short: as §1

[12] = tested on: pigweed (Amaranthus retroflexus)
In short: as §1

[13] = Postemergence, 31 g ai/ha, scale 0 to 100 (0 no effect, 100 complete control)
[14] = Postemergence, 125 g ai/ha, visual rating on scale 0 (no effect) to 100 (complete control), 14 to 21 d
[15] = Postemergence, 250 g ai/ha, scale 0 to 100 (0 no effect, 100 complete control)
[16] = Preemergence, 62 g ai/ha, scale 0 to 100 (0 no effect, 100 complete control)
[17] = Preemergence, 125 g ai/ha, scale 0 to 100 (0 no effect, 100 complete control)
[18] = Preemergence, 250 g ai/ha, scale 0 to 100 (0 no effect, 100 complete control)
[19] = postemergence, 62 g ai/ha, scale 0 to 100, 0 no effect, 100 complete control

CC(=O)Oc1c(C)nn(C)c(=O)c1-c1c(C)sc2ccc(C)cc12 [Compound 25]
Speedwell plant response rating [1, 13]: 10
Plant response rating, Speedwell [1, 14]: 25
Plant response rating, Speedwell [1, 15]: 80
Plant response rating (scale of 0 to 100), Speedwell ([1]; Preemergence, 31 g ai/ha): 35
Plant response rating, Speedwell [1, 16]: 80
Plant response rating, Speedwell [1, 17]: 95
Plant response rating, Speedwell [1, 18]: 100
Plant response rating, Speedwell [1, 19]: 15
Mustard, Wild plant response rating [2, 13]: 20
Plant response rating, Mustard, Wild [2, 14]: 70
Plant response rating, Mustard, Wild [2, 15]: 85
Plant response rating (scale of 0 to 100), Mustard, Wild ([2]; Preemergence, 31 g ai/ha): 0
Plant response rating, Mustard, Wild [2, 16]: 0
Plant response rating, Mustard, Wild [2, 17]: 20
Plant response rating, Mustard, Wild [2, 18]: 60
Plant response rating, Mustard, Wild [2, 19]: 40
Kochia plant response rating (kochia (Kochia scoparia); [13]): 90
Plant response rating, Kochia (kochia (Kochia scoparia); [14]): 100
Plant response rating, Kochia (kochia (Kochia scoparia); [15]): 100
Plant response rating (scale of 0 to 100), Kochia (kochia (Kochia scoparia); Preemergence, 31 g ai/ha): 0
Plant response rating, Kochia (kochia (Kochia scoparia); [16]): 10
Plant response rating, Kochia (kochia (Kochia scoparia); [17]): 40
Plant response rating, Kochia (kochia (Kochia scoparia); [18]): 100
Plant response rating, Kochia (kochia (Kochia scoparia); [19]): 95
Bluegrass plant response rating [3, 13]: 10
Plant response rating, Bluegrass [3, 14]: 30
Plant response rating, Bluegrass [3, 15]: 40
Plant response rating (scale of 0 to 100), Bluegrass ([3]; Preemergence, 31 g ai/ha): 25
Plant response rating, Bluegrass [3, 16]: 35
Plant response rating, Bluegrass [3, 17]: 40
Bluegrass plant response rating [3, 18]: 75
Plant response rating, Bluegrass [3, 19]: 20
Canarygrass plant response rating [4, 13]: 70
Plant response rating, Canarygrass [4, 14]: 80
Plant response rating, Canarygrass [4, 15]: 85
Plant response rating (scale of 0 to 100), Canarygrass ([4]; Preemergence, 31 g ai/ha): 80
Plant response rating, Canarygrass [4, 16]: 80
Plant response rating, Canarygrass [4, 17]: 95
Plant response rating, Canarygrass [4, 18]: 100
Plant response rating, Canarygrass [4, 19]: 80
Russian Thistle plant response rating [5, 13]: 70
Plant response rating, Russian Thistle [5, 14]: 80
Plant response rating, Russian Thistle [5, 15]: 90
Plant response rating (scale of 0 to 100), Russian Thistle ([5]; Preemergence, 31 g ai/ha): 10
Plant response rating, Russian Thistle [5, 16]: 25
Plant response rating, Russian Thistle [5, 17]: 40
Plant response rating, Russian Thistle [5, 18]: 90
Plant response rating, Russian Thistle [5, 19]: 75
Field Violet plant response rating [6, 13]: 65
Plant response rating, Field Violet [6, 14]: 85
Plant response rating, Field Violet [6, 15]: 95
Plant response rating (scale of 0 to 100), Field Violet ([6]; Preemergence, 31 g ai/ha): 90
Plant response rating, Field Violet [6, 16]: 100
Plant response rating, Field Violet [6, 17]: 100
Plant response rating, Field Violet [6, 18]: 100
Plant response rating, Field Violet [6, 19]: 75
Buckwheat, Wild plant response rating [7, 13]: 80
Plant response rating, Buckwheat, Wild [7, 14]: 100
Plant response rating, Buckwheat, Wild [7, 15]: 100
Plant response rating (scale of 0 to 100), Buckwheat, Wild ([7]; Preemergence, 31 g ai/ha): 0
Plant response rating, Buckwheat, Wild [7, 16]: 0
Plant response rating, Buckwheat, Wild [7, 17]: 20
Plant response rating, Buckwheat, Wild [7, 18]: 25
Plant response rating, Buckwheat, Wild [7, 19]: 100
Radish, Wild plant response rating [8, 13]: 15
Plant response rating, Radish, Wild [8, 14]: 65
Plant response rating, Radish, Wild [8, 15]: 75
Plant response rating (scale of 0 to 100), Radish, Wild ([8]; Preemergence, 31 g ai/ha): 0
Plant response rating, Radish, Wild [8, 16]: 0
Plant response rating, Radish, Wild [8, 17]: 0
Plant response rating, Radish, Wild [8, 18]: 0
Plant response rating, Radish, Wild [8, 19]: 35
Galium plant response rating [9, 13]: 100
Plant response rating, Galium [9, 14]: 100
Plant response rating, Galium [9, 15]: 100
Plant response rating (scale of 0 to 100), Galium ([9]; Preemergence, 31 g ai/ha): 70
Plant response rating, Galium [9, 16]: 90
Plant response rating, Galium [9, 17]: 95
Plant response rating, Galium [9, 18]: 100
Plant response rating, Galium [9, 19]: 100
Windgrass plant response rating [10, 13]: 70
Plant response rating, Windgrass [10, 14]: 85
Plant response rating, Windgrass [10, 15]: 85
Plant response rating (scale of 0 to 100), Windgrass ([10]; Preemergence, 31 g ai/ha): 75
Plant response rating, Windgrass [10, 16]: 85
Plant response rating, Windgrass [10, 17]: 100
Plant response rating, Windgrass [10, 18]: 100
Plant response rating, Windgrass [10, 19]: 75
Oilseed Rape plant response rating [11, 13]: 5
Plant response rating, Oilseed Rape [11, 14]: 45
Plant response rating, Oilseed Rape [11, 15]: 60
Plant response rating (scale of 0 to 100), Oilseed Rape ([11]; Preemergence, 31 g ai/ha): 0
Plant response rating, Oilseed Rape [11, 16]: 0
Plant response rating, Oilseed Rape [11, 17]: 0
Plant response rating, Oilseed Rape [11, 18]: 35
Plant response rating, Oilseed Rape [11, 19]: 30
Pigweed plant response rating [12, 13]: 80
Plant response rating, Pigweed [12, 14]: 95
Plant response rating, Pigweed [12, 15]: 100
Plant response rating (scale of 0 to 100), Pigweed ([12]; Preemergence, 31 g ai/ha): 100
Plant response rating, Pigweed [12, 16]: 100
Plant response rating, Pigweed [12, 17]: 100
Plant response rating, Pigweed [12, 18]: 100
Plant response rating, Pigweed [12, 19]: 100
